Test results as given in patent US11077100B2, “Tetrahydroquinoline derivatives as P2X7 receptor antagonists” (RaQualia Pharma Inc., priority 2017, dated 2021).

Experiments:
[1] = target: human P2X7 (Homo sapiens (Human), UniProt Q99572); test: Human P2X7 functional assay (Ca2+ influx, Fluo-4, FDSS); type: cell-based; details: antagonistic activity with respect to the human P2X7 receptor; BzATP final concentration 80 microM
In short: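 Ca2+ influx was triggered with BzATP (80 μM final) after a 10-min room-temperature compound preincubation and monitored with Fluo-4 (ex 480/em 540 nm) on FDSS. The cells were HEK293 stably carrying FLAG-tagged human P2X7. Duplicate-averaged 7-point dose-responses gave IC50s.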

[2] = target: rat P2X7 (Rattus norvegicus (Rat), UniProt Q64663); test: Rat P2X7 functional assay (Ca2+ influx, Fluo-4, FDSS); type: cell-based; details: HEK293 cells stably expressing rat P2X7; BzATP final 10 microM; 7-point dose-response; read-out: Antagonistic activities with respect to the rat P2X7 receptor (IC50)
In short: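 IC50 derived from 7-point dose-response in duplicate, measuring inhibition of BzATP-evoked (final 10 microM) intracellular Ca2+ increase by Fluo-4 fluorescence on FDSS. Rat P2X7-HEK293 cells were exposed to compound for 10 min in the dark beforehand.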

Chain of human P2X7 (Q99572 whole entry): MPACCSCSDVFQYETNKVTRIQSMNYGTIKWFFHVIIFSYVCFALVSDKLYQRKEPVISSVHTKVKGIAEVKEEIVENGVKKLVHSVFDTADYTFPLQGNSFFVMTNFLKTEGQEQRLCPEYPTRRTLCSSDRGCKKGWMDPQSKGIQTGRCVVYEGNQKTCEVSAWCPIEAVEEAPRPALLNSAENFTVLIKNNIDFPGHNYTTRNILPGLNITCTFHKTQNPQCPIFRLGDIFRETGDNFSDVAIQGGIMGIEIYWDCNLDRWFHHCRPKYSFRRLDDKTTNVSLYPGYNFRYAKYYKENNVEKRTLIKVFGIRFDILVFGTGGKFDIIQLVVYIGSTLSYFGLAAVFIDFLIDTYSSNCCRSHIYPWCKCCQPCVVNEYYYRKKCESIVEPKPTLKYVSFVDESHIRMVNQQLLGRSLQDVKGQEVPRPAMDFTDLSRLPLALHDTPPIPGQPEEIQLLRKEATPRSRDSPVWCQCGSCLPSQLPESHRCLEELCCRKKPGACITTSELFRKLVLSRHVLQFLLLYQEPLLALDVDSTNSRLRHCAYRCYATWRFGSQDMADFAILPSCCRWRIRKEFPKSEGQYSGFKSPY
Chain of rat P2X7 (Q64663 whole entry): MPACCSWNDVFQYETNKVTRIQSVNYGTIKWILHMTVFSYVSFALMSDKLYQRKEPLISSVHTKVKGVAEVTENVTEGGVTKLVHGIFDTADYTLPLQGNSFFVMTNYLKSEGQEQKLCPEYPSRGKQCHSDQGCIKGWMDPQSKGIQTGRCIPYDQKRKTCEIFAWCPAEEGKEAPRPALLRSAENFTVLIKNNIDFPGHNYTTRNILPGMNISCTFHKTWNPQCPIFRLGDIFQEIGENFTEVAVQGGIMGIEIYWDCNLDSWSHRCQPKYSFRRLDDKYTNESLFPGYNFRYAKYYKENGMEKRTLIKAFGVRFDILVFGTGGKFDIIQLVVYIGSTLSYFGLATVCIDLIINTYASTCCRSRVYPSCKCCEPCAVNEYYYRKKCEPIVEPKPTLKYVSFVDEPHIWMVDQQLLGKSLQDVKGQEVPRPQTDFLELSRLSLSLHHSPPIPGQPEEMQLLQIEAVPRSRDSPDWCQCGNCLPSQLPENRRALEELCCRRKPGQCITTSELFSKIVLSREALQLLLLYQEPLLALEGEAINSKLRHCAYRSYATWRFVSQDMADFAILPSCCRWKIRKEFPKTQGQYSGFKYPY

Structure (SMILES)	IC50 [1] [nM]	IC50 [2] [nM]
CN(CCO)C[C@]1(O)CC[C@@](F)(C(=O)NCc2ccc(Cl)cc2Cl)c2cccnc21 [Example 277, (5S,8R)-N-(2,4-dichlorobenzyl)-5-fluoro-8-hydroxy-8-(((2-hydroxyethyl) (methyl)amino)methyl)-5,6,7,8-tetrahydroquinoline-5-carboxamide]	< 50	< 1000
COC1(C)CN(C[C@]2(O)CC[C@@](F)(C(=O)NCc3ccc(F)cc3Cl)c3cccnc32)C1 (relative stereo) [Example 55, (5S*,8R*)-N-(2-chloro-4-fluorobenzyl)-5-fluoro-8-hydroxy-8-((3-methoxy-3-methylazetidin-1-yl)methyl)-5,6,7,8-tetra-hydroquinoline-5-carboxamide]	< 50	< 1000
O=C(NCc1cccc(Cl)c1Cl)C1(F)CCC(O)(CO)c2ncccc21 (stereo not drawn) [Example 36, N-(2,3-dichlorobenzyl)-5-fluoro-8-hy-droxy-8-(hydroxymethyl)-5,6,7,8-tetra-hydroquinoline-5-carboxamide]	< 50	< 1000
O=C(NCc1cccc(F)c1C(F)(F)F)[C@]1(F)CC[C@H](O)c2ncccc21 [Example 178, (58,8S)-5-fluoro-N-(3-fluoro-2-(trifluoromethyl)benzyl)-8-hydroxy-5,6,7,8-tetrahydroquinoline-5-carboxamide]	< 50	< 1000
C[C@@H](NC(=O)[C@]1(F)CC[C@@](O)(CO)c2ncccc21)c1ccc(Cl)cc1Cl [Example 326, (5S,8S)-N-((R)-1-(2,4-dichlorophenyl)ethyl)-5-fluoro-8-hydroxy-8-(hydroxymethyl)-5,6,7,8-tetrahydroquinoline-5-carboxamide]	< 50	< 1000
O=C(NCc1ccccc1Cl)[C@]1(F)CC[C@H](O)c2ncccc21 [Example 195, (5S,8S)-N-(2-chlorobenzyl)-5-fluoro-8-hydroxy-5,6,7,8-tetrahydroquinoline-5-carboxamide]	< 50	< 1000
O=C(NCc1c(Cl)cc(Cl)cc1CO)[C@]1(F)CC[C@H](O)c2ncccc21 [Example 131, (5S,8S)-N-(2,4-dichloro-6-(hydroxymethyl)benzyl)-5-fluoro-8-hydroxy-5,6,7,8-tetrahydroquinoline-5-carboxamide]	< 50	< 1000
C[C@@]1(O)CC[C@@](F)(C(=O)NCc2ccc(Cl)cc2Cl)c2cccnc21 [Example 257, (5S,8R)-N-(2,4-dichlorobenzyl)-5-fluoro-8-hydroxy-8-methyl-5,6,7,8-tetrahydroquinoline-5-carboxamide]	101 to 300	< 1000
C[C@]1(O)CC[C@@](F)(C(=O)NCc2c(Cl)cc(F)cc2CO)c2cccnc21 [Example 262, (5S,8S)-N-(2-chloro-4-fluoro-6-(hydroxymethyl)benzyl)-5-fluoro-8-hydroxy-8-methyl-5,6,7,8-tetrahydroquinoline-5-carboxamide]	< 50	< 1000
O=C(NCc1ccc(Cl)cc1Cl)[C@@]1(F)CC[C@](O)(CN2CC(O)C2)c2ncccc21 [Example 279, (5R,8S)-N-(2,4-dichlorobenzyl)-5-fluoro-8-hydroxy-8-((3-hydroxyazetidin-1-yl)methyl)-5,6,7,8-tetrahydroquinoline-5-carboxamide]	< 50	< 1000
O=C(NCc1ccc(F)cc1Cl)[C@]1(F)CC[C@@](O)(CS(=O)(=O)CCO)c2ncccc21 [Example 301, (5S,8S)-N-(2-chloro-4-fluorobenzyl)-5-fluoro-8-hydroxy-8-(((2-hydroxyethyl)sulfonyl)methyl)-5,6,7,8-tetrahydroquinoline-5-carboxamide]	50 to 100	< 1000
CN(CCO)C[C@]1(O)CC[C@@](F)(C(=O)NCc2ccc(F)cc2Cl)c2cccnc21 (relative stereo) [Example 57, (5S*,8R*)-N-(2-chloro-4-fluorobenzyl)-5-fluoro-8-hydroxy-8-(((2-hydroxyethyl)(meth-yl)amino)methyl)-5,6,7,8-tetrahydroquinoline-5-carboxamide]	< 50	< 1000
C[C@]1(O)CC[C@@](F)(C(=O)NCc2ccc(F)cc2F)c2cccnc21 [Example 263, (5S,8S)-N-(2,4-difluorobenzyl)-5-fluoro-8-hydroxy-8-methyl-5,6,7,8-tetrahydroquinoline-5-carboxamide]	< 50	< 1000
CO[C@H]1CC[C@@](F)(C(=O)NCc2ccc(F)cc2Cl)c2cccnc21 [Example 337, (5S,8S)-N-(2-chloro-4-fluorobenzyl)-5-fluoro-8-methoxy-5,6,7,8-tetrahydroquinoline-5-carboxamide]	< 50	< 1000
O=C(NCc1ccc(Br)cc1Cl)[C@@]1(F)CC[C@@H](O)c2ncccc21 [Example 153, (5R,8R)-N-(4-bromo-2-chlorobenzyl)-5-fluoro-8-hydroxy-5,6,7,8-tetrahydroquinoline-5-carboxamide]	< 50	< 1000
O=C(NCc1cccc(Cl)c1Cl)[C@@]1(F)CC[C@@H](O)c2ncccc21 [Example 158, (5R,8R)-N-(2,3-dichlorobenzyl)-5-fluoro-8-hydroxy-5,6,7,8-tetrahydroquinoline-5-carboxamide]	< 50	< 1000
CNCC1(O)CCC(F)(C(=O)NCc2c(C)cc(Cl)cc2Cl)c2cccnc21 (stereo not drawn) [Example 46, N-(2,4-dichloro-6-methylbenzyl)-5-fluoro-8-hydroxy-8-((methyl-amino)methyl)-5,6,7,8-tetra-hydroquinoline-5-carboxamide]	< 50	< 1000
O=C(NCc1ccc(Cl)cc1Cl)[C@]1(F)CC[C@@](O)(CS(=O)(=O)CCO)c2ncccc21 [Example 300, (5S,8S)-N-(2,4-dichlorobenzyl)-5-fluoro-8-hydroxy-8-(((2-hydroxyethyl)sulfonyl)methyl)-5,6,7,8-tetrahydroquinoline-5-carboxamide]	< 50	< 1000
CO[C@H]1CC[C@@](F)(C(=O)NCc2c(F)cc(F)cc2F)c2cccnc21 [Example 341, (5S,8S)-5-fluoro-8-methoxy-N-(2,4,6-trifluorobenzyl)-5,6,7,8-tetrahydroquinoline-5-carboxamide]	50 to 100	< 1000
CO[C@@H]1CC[C@@](F)(C(=O)NCc2c(Cl)cc(Cl)cc2CO)c2cccnc21 [Example 334, (5S,8R)-N-(2,4-dichloro-6-(hydroxymethyl)benzyl)-5-fluoro-8-methoxy-5,6,7,8-tetrahydroquinoline-5-carboxamide]	< 50	< 1000
O=C(NCc1ccc(F)c(Cl)c1F)[C@]1(F)CC[C@H](O)c2ncccc21 [Example 185, (5S,8S)-N-(3-chloro-2,4-difluorobenzyl)-5-fluoro-8-hydroxy-5,6,7,8-tetrahydroquinoline-5-carboxamide]	< 50	< 1000
O=C(NCc1ccc(Br)cc1F)[C@@H]1CC[C@H](O)c2ncccc21 [Example 80, (5R,8S)-N-(4-bromo-2-fluorobenzyl)-8-hydroxy-5,6,7,8-tetrahydroquinoline-5-carboxamide]	50 to 100	< 1000
O=C(NCc1cccc(Cl)c1Cl)[C@]1(F)CC[C@H](O)c2ncccc21 [Example 159, (5S,8S)-N-(2,3-dichlorobenzyl)-5-fluoro-8-hydroxy-5,6,7,8-tetrahydroquinoline-5-carboxamide]	< 50	< 1000
O=C(NCc1ccc(Cl)cc1F)[C@]1(F)CC[C@@H](O)c2ncccc21 [Example 111, (5S,8R)-N-(4-chloro-2-fluorobenzyl)-5-fluoro-8-hydroxy-5,6,7,8-tetrahydroquinoline-5-carboxamide]	301 to 1000	< 1000
COc1ccc(CNC(=O)[C@]2(F)CC[C@H](O)c3ncccc32)c(Cl)c1 [Example 172, (5S,8S)-N-(2-chloro-4-methoxybenzyl)-5-fluoro-8-hydroxy-5,6,7,8-tetrahydroquinoline-5-carboxamide]	101 to 300	< 1000
Cc1cc(Cl)cc(Cl)c1CNC(=O)C1CC(=O)c2ncccc21 (stereo not drawn) [Example 16, N-(2,4-dichloro-6-methylbenzyl)-7-oxo-6,7-dihydro-5H-cyclopenta[b]pyridine-5-carboxamide]	< 50	< 1000
O=C1COC[C@@]2(CC[C@@](F)(C(=O)NCc3ccc(Cl)cc3Cl)c3cccnc32)N1 (relative stereo) [Example 62, (3S*,5′S*)-N-(2,4-dichlorobenzyl)-5′-fluoro-5-oxo-6′,7′-dihydro-5′H-spiro[morpholine-3,8′-quinoline]-5′-carboxamide]	101 to 300	< 1000
O=C(NCc1cccc(C(F)(F)F)c1Cl)C1(O)CCC(O)c2ncccc21 (stereo not drawn) [Example 25, N-(2-chloro-3-(trifluoro-methyl)benzyl)-5,8-dihydroxy-5,6,7,8-tetrahydroquinoline-5-carboxamide]	101 to 300	< 1000
C[C@]1(O)CC[C@@](F)(C(=O)NCc2ccc(Cl)cc2Cl)c2cccnc21 [Example 256, (5S,8S)-N-(2,4-dichlorobenzyl)-5-fluoro-8-hydroxy-8-methyl-5,6,7,8-tetrahydroquinoline-5-carboxamide]	< 50	< 1000
O=C(NCc1c(F)cc(Cl)cc1Cl)[C@]1(F)CC[C@@](O)(CO)c2ncccc21 [Example 310, (5S,8S)-N-(2,4-dichloro-6-fluorobenzyl)-5-fluoro-8-hydroxy-8-(hydroxymethyl)-5,6,7,8-tetrahydroquinoline-5-carboxamide]	< 50	< 1000
